The record followed here is patent US20240100068A1, “METHODS COMPRISING ADMINISTRATION OF A GLUCOCORTICOID RECEPTOR AGONIST AND AN INHIBITOR OF CALCINEURIN” (Chengdu Anticancer Bioscience, Ltd., priority 2022, published 2024).

Structures are written as SMILES. Where two headings read alike, the source gives them in different places. Some results are limits rather than exact numbers.

The subject of one assay is T2MycNick cells. Nature of the assay: Testing compounds for their ability of restoring contact inhibition (vacuolation, cell density). The format is cell-based, murine. As to conditions: for minimal effective concentration: T2MycNick cells grown beyond confluence, 7-14 days; for cell density reduction (in words) / vacuolation (in words): compound alone; for vacuolation (in words): up to 10 μM.

In a further assay the test system is MycNick cells. Nature of the assay: Combination treatment with Hydrocortisone: modulation of HC-induced vacuolation, cell density reduction and CIR effect. In kind it is cell-based, murine. The following applies: for sensitization to induction of vacuolation elicited by Hydrocortisone: 10 days, FIG. 16: Cyclosporin A […], Hydrocortisone 0.3 μM; for Cell density reduction by Hydrocortisone / Vacuolation by Hydrocortisone: Combination treatment with Hydrocortisone for 7 days; for HC-triggered vacuolation in presence of the compound: added to HC. The procedure:
Exponentially growing MycNick cells were passaged into 24-well plates at a final confluence of 90% and were allowed to attach for 48 hours before being exposed to a cortisol analog in the presence or absence of a calcineurin inhibitor. […] An inverted tissue culture microscope (Leica) was used to document vacuoles in live cells. Cell density was evaluated under an EVOS FL Auto microscope (Thermo Fisher) after fixation of the treated cells with 4% paraformaldehyde (PFA) in the presence of detergent 0.5% Triton X-100 and subsequently staining of DNA with 5 μg/ml of Propidium Iodide (PI) in the presence of 5 μg/ml of Ribonuclease A from bovine pancreas (RNase A) (Sigma, Cat. # R6513-50MG).
The threshold concentration that was used to elicit no less than 50% of reduction in the cell density was determined. So was the minimal effective concentration that could induce vacuolation to an extent that covered no less than 10% of a random field documented under a bright field microscope. Quantification of the area with vacuolation, multilayer zones or multilayer zones was performed with the Image J software. More than 10 random fields were chosen for quantification for each data point in each of two independent experiments.
A chemical library for enhancers of the CIR effect of HC in MycNick cells was screened.

Setting [1] is: Mus musculus, PI staining, read-out: Conc that reduces > 50% in the cell density.
[2] abbreviates: Mus musculus, vacuolation covering no less than 10% of a random field, read-out: Min. effective conc. that elicits vacuolation.
The mark [3] stands for this setting: PI staining, read-out: Conc that reduces > 50% in the cell density.
The mark [4] stands for this setting: vacuolation covering no less than 10% of a random field, read-out: Min. effective conc. that elicits vacuolation.

Experimental for T2MycNick cells: Exponentially growing MycNick cells were passaged into 24-well plates at a final confluence of 90% and were allowed to attach for 48 hours before being exposed to a cortisol analog in the presence or absence of a calcineurin inhibitor. After the initiation of treatment, the cells were allowed to grow beyond confluence for 7 days before being subjected to morphological analysis and cell density. An inverted tissue culture microscope (Leica) was used to document vacuoles in live cells. Cell density was evaluated under an EVOS FL Auto microscope (Thermo Fisher) after fixation of the treated cells with 4% paraformaldehyde (PFA) in the presence of detergent 0.5% Triton X-100 and subsequently staining of DNA with 5 μg/ml of Propidium Iodide (PI) in the presence of 5 μg/ml of Ribonuclease A from bovine pancreas (RNase A) (Sigma, Cat. # R6513-50MG).
Exponentially growing murine cells expressing Myc-Nick (T2MycNick cells) were passaged into 24-well plates at a final confluence of 20% and were allowed to attach overnight before being exposed to a test compound at a concentration of 10 μM. […] The cells were subjected to daily analysis of viability and morphology under an inverted tissue culture microscope or GE InCell Analyzer 2000. Cell density was documented after staining of DNA with PI 7-10 days after the initiation of treatment.

For `CCC(=O)OCC(=O)[C@@]1(OC(=O)CC)[C@@H](C)C[C@H]2[C@@H]3CCC4=CC(=O)C=C[C@]4(C)[C@@]3(Cl)[C@@H](O)C[C@@]21C` [CI019, Beclomethasone dipropionate], the minimal effective concentration in the assay with T2MycNick cells (setting [1]) was determined as 2.5 µM; in the assay with T2MycNick cells (setting [2]) it was 0.625 µM.

For the molecule `CC1(C)O[C@@H]2C[C@H]3[C@@H]4CCC5=CC(=O)C=C[C@]5(C)[C@H]4[C@@H](O)C[C@]3(C)[C@]2(C(=O)CO)O1` [CI020, Desonide], the values for the minimal effective concentration in the assay with T2MycNick cells (setting [1]) and in the assay on T2MycNick cells (setting [2]) were 2.5 µM and 0.625 µM, respectively.

With `CC1(C)O[C@@H]2C[C@H]3[C@@H]4C[C@H](F)C5=CC(=O)C=C[C@]5(C)[C@@]4(F)[C@@H](O)C[C@]3(C)[C@]2(C(=O)CO)O1` [CI021, Fluocinolone Acetonide], the minimal effective concentration in the assay with T2MycNick cells (setting [1]) came out at 2.5 µM; with T2MycNick cells (setting [2]) it was 0.625 µM.

For `CCC(=O)O[C@]1(C(=O)SCF)[C@H](C)C[C@H]2[C@@H]3C[C@H](F)C4=CC(=O)C=C[C@]4(C)[C@@]3(F)[C@@H](O)C[C@@]21C` [CI022, Fluticasone propionate], the minimal effective concentration in the assay with T2MycNick cells (setting [1]) came to 2.5 µM; in the assay with T2MycNick cells (setting [2]), 0.625 µM.

As to `C[C@@H]1C[C@H]2[C@@H]3CCC4=CC(=O)C=C[C@]4(C)[C@@]3(Cl)[C@@H](O)C[C@]2(C)[C@@]1(OC(=O)c1ccco1)C(=O)CCl` [CI023, Mometasone Furoate], the minimal effective concentration stood at 2.5 µM in the assay on T2MycNick cells (setting [1]) and 0.625 µM in the assay with T2MycNick cells (setting [2]).

For the molecule `C[C@]12C[C@H](O)[C@H]3[C@@H](CCC4=CC(=O)CC[C@@]43C)[C@@H]1CC[C@@H]2C(=O)CO` [CI028, Corticosterone], the minimal effective concentration came out at 2.5 µM in the assay on T2MycNick cells (setting [1]) and 0.625 µM in the assay on T2MycNick cells (setting [2]).

On to `C#C[C@]1(OC(C)=O)CC[C@H]2[C@@H]3CCC4=C[C@@H](OC(C)=O)CC[C@@H]4[C@H]3CC[C@@]21C` [CI030, Ethynodiol diacetate], for which the minimal effective concentration in the assay with T2MycNick cells (setting [1]) was 5 µM. The minimal effective concentration with T2MycNick cells (setting [2]) is > 10 µM. Further, in the assay on T2MycNick cells, the “cell density reduction (in words)” value was “failed to elicit vacuolation or reduce cell density” and the “vacuolation (in words)” value was “failed to elicit vacuolation”.

In the case of `CC(=O)O[C@]1(C(C)=O)CC[C@H]2[C@@H]3C[C@H](C)C4=CC(=O)CC[C@]4(C)[C@H]3CC[C@@]21C` [CI031, Medroxyprogesterone acetate], the minimal effective concentration in the assay on T2MycNick cells (setting [3]) and in the assay with T2MycNick cells (setting [4]) was 2.5 µM throughout.

With `C#C[C@]1(O)CC[C@H]2[C@@H]3CCC4=CC(=O)CC[C@]4(C)[C@H]3CC[C@@]21C` [CI032, Ethisterone], in the assay on T2MycNick cells (setting [1]), the minimal effective concentration is 10 µM. Besides, the minimal effective concentration in the assay on T2MycNick cells (setting [2]) is > 10 µM. Besides, in the assay with T2MycNick cells, the “cell density reduction (in words)” value is listed as “failed to elicit vacuolation or reduce cell density” and the “vacuolation (in words)” value is reported as “failed to elicit vacuolation”.

For the molecule `C[C@]12CCC3=C4CCC(=O)C=C4CC[C@H]3[C@@H]1CC[C@@]2(O)CC#N` [CI033, Dienogest], the minimal effective concentration in the assay with T2MycNick cells (setting [1]) is 10 µM; in the assay with T2MycNick cells (setting [2]), > 10 µM. For the same molecule, the “cell density reduction (in words)” value in the assay with T2MycNick cells was “failed to elicit vacuolation or reduce cell density”. Besides, the “vacuolation (in words)” value with T2MycNick cells is recorded as “failed to elicit vacuolation”.

With `CC[C@@H]1/C=C(\C)C[C@H](C)C[C@H](OC)[C@H]2O[C@@](O)(C(=O)C(=O)N3CCCC[C@H]3C(=O)O[C@H](/C(C)=C/[C@@H]3CC[C@@H](O)[C@H](OC)C3)[C@H](C)[C@@H](O)CC1=O)[C@H](C)C[C@@H]2OC` [CI034, Ascomycin], the “vacuolation (in words)” value in the assay with T2MycNick cells is given as “did not elicit vacuolation”. Further, in the assay with MycNick cells, the “sensitization to induction of vacuolation elicited by Hydrocortisone” value (“sensitization to induction” for short) is on record as “sensitizes”, the “Cell density reduction by Hydrocortisone” value was “Enhanced” and the “Vacuolation by Hydrocortisone” value was “Enhanced”.

`C[C@@H]1C[C@H]2[C@@H]3CCC4=CC(=O)C=C[C@]4(C)[C@@]3(F)[C@@H](O)C[C@]2(C)[C@@]1(O)C(=O)COP(=O)([O-])[O-].[Na+].[Na+]` [CI039, Dexamethasone 21-phosphate disodium salt]: the minimal effective concentration in the assay with T2MycNick cells (setting [3]) is recorded as 2.5 µM; in the assay on T2MycNick cells (setting [4]), 0.625 µM.

Take `CC[C@@H]1/C=C(\C)C[C@H](C)C[C@H](OC)[C@H]2O[C@@](O)(C(=O)C(=O)N3CCCC[C@H]3C(=O)O[C@H](/C(C)=C/[C@@H]3CC[C@H](Cl)[C@H](OC)C3)[C@H](C)[C@@H](O)CC1=O)[C@H](C)C[C@@H]2OC` [CI040, Pimecrolimus]: in the assay with T2MycNick cells, the “vacuolation (in words)” value is recorded as “did not elicit vacuolation”. Besides, in the assay on MycNick cells, the “sensitization to induction” value is reported as “sensitizes”, the “Cell density reduction by Hydrocortisone” value is recorded as “Enhanced” and the “Vacuolation by Hydrocortisone” value is “Enhanced”.

As to `CC1(C)O[C@@H]2C[C@H]3[C@@H]4CCC5=CC(=O)C=C[C@]5(C)[C@@]4(F)[C@@H](O)C[C@]3(C)[C@]2(C(=O)CO)O1` [CI041, Triamcinolone acetonide], the results for the minimal effective concentration in the assay with T2MycNick cells (setting [1]) and in the assay on T2MycNick cells (setting [2]) were 2.5 µM and 0.625 µM, respectively.

With `C[C@]12C=CC(=O)C=C1CC[C@@H]1[C@@H]2C(=O)C[C@@]2(C)[C@H]1CC[C@]2(O)C(=O)CO` [CI042, Prednisone], the minimal effective concentration is 2.5 µM in the assay on T2MycNick cells (setting [1]) and > 10 µM with T2MycNick cells (setting [2]).

In the case of `CC(=O)[C@@]1(O)CC[C@H]2[C@@H]3C[C@H](C)C4=CC(=O)C=C[C@]4(C)[C@@]3(F)[C@@H](O)C[C@@]21C` [CI043, Fluorometholone], the minimal effective concentration with T2MycNick cells (setting [1]) came to 2.5 µM; in the assay with T2MycNick cells (setting [2]), 0.625 µM.

Take `C=CC[C@@H]1/C=C(\C)C[C@H](C)C[C@H](OC)[C@H]2O[C@@](O)(C(=O)C(=O)N3CCCC[C@H]3C(=O)O[C@H](/C(C)=C/[C@@H]3CC[C@@H](O)[C@H](OC)C3)[C@H](C)[C@@H](O)CC1=O)[C@H](C)C[C@@H]2OC` [CI046, Tacrolimus]: in the assay with T2MycNick cells, the “vacuolation (in words)” value was “did not elicit vacuolation”. Further, in the assay on MycNick cells, the “sensitization to induction” value was “sensitizes”, the “Cell density reduction by Hydrocortisone” value is on record as “Enhanced” and the “Vacuolation by Hydrocortisone” value is “Enhanced”.

Take `C[C@]12C=CC(=O)C=C1CC[C@H]1[C@@H]3C[C@@H](O)[C@](O)(C(=O)CO)[C@@]3(C)C[C@H](O)[C@@]12F` [CI047, Triamcinolone]: the minimal effective concentration is 2.5 µM in the assay on T2MycNick cells (setting [1]) and 0.625 µM in the assay with T2MycNick cells (setting [2]).

With `CC(=O)OCC(=O)[C@@]12OC(C)(C)O[C@@H]1C[C@H]1[C@@H]3C[C@H](F)C4=CC(=O)C=C[C@]4(C)[C@@]3(F)[C@@H](O)C[C@@]12C` [CI048, Fluocinonide], the minimal effective concentration is 2.5 µM with T2MycNick cells (setting [1]) and 0.625 µM with T2MycNick cells (setting [2]).

In the case of `C[C@]12CCC(=O)C=C1CC[C@@H]1[C@@H]2CC[C@@]2(C)[C@H]1CC[C@]2(O)C(=O)CO` [CI049, Cortodoxone], the minimal effective concentration stood at 10 µM in the assay on T2MycNick cells (setting [1]) and 5 µM in the assay with T2MycNick cells (setting [2]).

In the case of `CC(=O)OCC(=O)[C@@]1(O)CC[C@H]2[C@@H]3CCC4=CC(=O)CC[C@]4(C)[C@H]3[C@@H](O)C[C@@]21C` [HC003, Hydrocortisone 21-acetate], the minimal effective concentration is 2 µM in the assay on T2MycNick cells (setting [3]) and >10 µM with T2MycNick cells (setting [4]).

As to `CCCC(=O)O[C@]1(C(=O)CO)CC[C@H]2[C@@H]3CCC4=CC(=O)CC[C@]4(C)[C@H]3[C@@H](O)C[C@@]21C` [HC004, Hydrocortisone 17-Butyrate], the minimal effective concentration in the assay on T2MycNick cells (setting [3]) is 10 µM; in the assay on T2MycNick cells (setting [4]), >10 µM.

In the case of `CC(=O)OCC(=O)[C@@]1(O)[C@H](C)C[C@H]2[C@@H]3CCC4=CC(=O)C=C[C@]4(C)[C@@]3(F)[C@@H](O)C[C@@]21C` [HC005, Dexamethasone 21-acetate], the minimal effective concentration in the assay with T2MycNick cells (setting [3]) is 10 µM; in the assay on T2MycNick cells (setting [4]) it was >10 µM.

With `CC#C[C@]1(O)CC[C@H]2[C@@H]3CCC4=CC(=O)CCC4=C3[C@@H](c3ccc(N(C)C)cc3)C[C@@]21C` [Mifepristone], the “contact inhibition restoration (CIR) activity” value in the assay with T2MycNick cells (high-density cells) is “failed to elicit”. Moreover, the “CIR effect of HC in presence of antagonist” value with MycNick cells (5 μM of Mifepristone) is recorded as “completely blocked”.

In the case of `Cn1c(=O)cc(N2CCC[C@@H](N)C2)n(Cc2ccccc2C#N)c1=O` [alogliptin], in the assay with MycNick cells, the “HC-triggered vacuolation in presence of the compound” value is “failed to inhibit”.

`CC#CCn1c(N2CCC[C@@H](N)C2)nc2c1c(=O)n(Cc1nc(C)c3ccccc3n1)c(=O)n2C` [linagliptin]: in the assay on MycNick cells, the “HC-triggered vacuolation in presence of the compound” value is reported as “failed to inhibit”.
